Experimental data as given in the NIST ThermoML archive (doi:10.1021/je800579j).
± gives the expanded uncertainty stated by the source.

Experiments:
[1] = refractive index (Na D-line) (dimensionless); settings: Liquid, Standard Abbe refractometry
[2] = Liquid, Pycnometric method
[3] = xn = mol fraction of the nth substance listed; settings: Liquid, Pycnometric method
[4] = refractive index (Na D-line) (dimensionless); xn = mol fraction of the nth substance listed; settings: Liquid, Standard Abbe refractometry

Compound | refractive index ([1]; 288.15 K) | refractive index ([1]; 293.15 K) | refractive index ([1]; 298.15 K) | refractive index ([1]; 303.15 K) | refractive index ([1]; 308.15 K) | refractive index ([1]; 313.15 K) | refractive index ([1]; 318.15 K) | mass density ([2]; 288.15 K) [kg/m3] | mass density ([2]; 293.15 K) [kg/m3] | mass density ([2]; 298.15 K) [kg/m3] | mass density ([2]; 303.15 K) [kg/m3] | mass density ([2]; 308.15 K) [kg/m3] | mass density ([2]; 313.15 K) [kg/m3] | mass density ([2]; 318.15 K) [kg/m3] | mass density ([3]; 288.15 K, x1 = 1) [kg/m3] | mass density ([3]; 293.15 K, x1 = 1) [kg/m3] | mass density ([3]; 298.15 K, x1 = 1) [kg/m3] | mass density ([3]; 303.15 K, x1 = 1) [kg/m3] | mass density ([3]; 308.15 K, x1 = 1) [kg/m3] | mass density ([3]; 313.15 K, x1 = 1) [kg/m3] | also measured
Cc1ccccc1C [1,2-dimethylbenzene] | 1.5083 ± 0.0007 | 1.5055 ± 0.0007 | 1.5029 ± 0.0007 | 1.5002 ± 0.0007 | 1.4975 ± 0.0007 | 1.4948 ± 0.0007 | 1.4921 ± 0.0007 | 884.09 ± 0.67 | 879.83 ± 0.66 | 875.57 ± 0.67 | 871.31 ± 0.67 | 867.05 ± 0.68 | 862.79 ± 0.68 | 858.53 ± 0.69 |  |  |  |  |  |  | 
Cc1cc(C)cc(C)c1 [1,3,5-trimethylbenzene] | 1.502 ± 0.0007 | 1.4995 ± 0.0007 | 1.4969 ± 0.0007 | 1.4944 ± 0.0007 | 1.4918 ± 0.0007 | 1.4893 ± 0.0007 | 1.4868 ± 0.0007 | 869.28 ± 0.63 | 865.37 ± 0.63 | 861.45 ± 0.63 | 857.54 ± 0.64 | 853.63 ± 0.65 | 849.71 ± 0.65 | 845.8 ± 0.66 |  |  |  |  |  |  | 
Cc1cccc(C)c1 [1,3-dimethylbenzene] | 1.4999 ± 0.0006 | 1.4974 ± 0.0007 | 1.4948 ± 0.0007 | 1.4922 ± 0.0007 | 1.4896 ± 0.0007 | 1.487 ± 0.0007 | 1.4844 ± 0.0007 | 868.59 ± 0.67 | 864.31 ± 0.66 | 860.02 ± 0.67 | 855.74 ± 0.67 | 851.45 ± 0.68 | 847.17 ± 0.68 | 842.88 ± 0.69 |  |  |  |  |  |  | 
Cc1ccc(C)cc1 [1,4-dimethylbenzene] | 1.4985 ± 0.0007 | 1.4959 ± 0.0007 | 1.4933 ± 0.0007 | 1.4907 ± 0.0007 | 1.4881 ± 0.0007 | 1.4855 ± 0.0007 | 1.483 ± 0.0006 | 865.52 ± 0.67 | 861.17 ± 0.67 | 856.82 ± 0.67 | 852.47 ± 0.68 | 848.12 ± 0.68 | 843.77 ± 0.69 | 839.42 ± 0.7 |  |  |  |  |  |  | 
C1COCCO1 [1,4-dioxane] | 1.4245 ± 0.0006 | 1.4224 ± 0.0006 | 1.4203 ± 0.0006 | 1.4182 ± 0.0006 | 1.4161 ± 0.0006 | 1.4139 ± 0.0006 | 1.4117 ± 0.0006 | 1039.23 ± 0.87 | 1033.59 ± 0.87 | 1027.95 ± 0.87 | 1022.32 ± 0.88 | 1016.68 ± 0.88 | 1011.05 ± 0.89 | 1005.42 ± 0.89 |  |  |  |  |  |  | 
C1COCCO1 [1,4-dioxane] + Cc1cc(C)cc(C)c1 |  |  |  |  |  |  |  |  |  |  |  |  |  |  | 1039.23 ± 0.87 | 1033.59 ± 0.87 | 1027.95 ± 0.87 | 1022.32 ± 0.88 | 1016.68 ± 0.88 | 1011.05 ± 0.89 | mass density ([3]; 318.15 K, x1 = 1): 1005.42 ± 0.89 kg/m3; refractive index ([4]; 288.15 K, x1 = 1): 1.4245 ± 0.0006; refractive index ([4]; 293.15 K, x1 = 1): 1.4224 ± 0.0006; refractive index ([4]; 298.15 K, x1 = 1): 1.4203 ± 0.0006; refractive index ([4]; 303.15 K, x1 = 1): 1.4182 ± 0.0006; refractive index ([4]; 308.15 K, x1 = 1): 1.4161 ± 0.0006; refractive index ([4]; 313.15 K, x1 = 1): 1.4139 ± 0.0006; refractive index ([4]; 318.15 K, x1 = 1): 1.4117 ± 0.0006
C1COCCO1 [1,4-dioxane] + Cc1ccc(C)cc1 |  |  |  |  |  |  |  |  |  |  |  |  |  |  | 1039.23 ± 0.87 | 1033.59 ± 0.87 | 1027.95 ± 0.87 | 1022.32 ± 0.88 | 1016.68 ± 0.88 | 1011.05 ± 0.89 | mass density ([3]; 318.15 K, x1 = 1): 1005.42 ± 0.89 kg/m3; refractive index ([4]; 288.15 K, x1 = 1): 1.4245 ± 0.0006; refractive index ([4]; 293.15 K, x1 = 1): 1.4224 ± 0.0006; refractive index ([4]; 298.15 K, x1 = 1): 1.4203 ± 0.0006; refractive index ([4]; 303.15 K, x1 = 1): 1.4182 ± 0.0006; refractive index ([4]; 308.15 K, x1 = 1): 1.4161 ± 0.0006; refractive index ([4]; 313.15 K, x1 = 1): 1.4139 ± 0.0006; refractive index ([4]; 318.15 K, x1 = 1): 1.4117 ± 0.0006
C1COCCO1 [1,4-dioxane] + Cc1cccc(C)c1 |  |  |  |  |  |  |  |  |  |  |  |  |  |  | 1039.23 ± 0.87 | 1033.59 ± 0.87 | 1027.95 ± 0.87 | 1022.32 ± 0.88 | 1016.68 ± 0.88 | 1011.05 ± 0.89 | mass density ([3]; 318.15 K, x1 = 1): 1005.42 ± 0.89 kg/m3; refractive index ([4]; 288.15 K, x1 = 1): 1.4245 ± 0.0006; refractive index ([4]; 293.15 K, x1 = 1): 1.4224 ± 0.0006; refractive index ([4]; 298.15 K, x1 = 1): 1.4203 ± 0.0006; refractive index ([4]; 303.15 K, x1 = 1): 1.4182 ± 0.0006; refractive index ([4]; 308.15 K, x1 = 1): 1.4161 ± 0.0006; refractive index ([4]; 313.15 K, x1 = 1): 1.4139 ± 0.0006; refractive index ([4]; 318.15 K, x1 = 1): 1.4117 ± 0.0006
C1COCCO1 [1,4-dioxane] + Cc1ccccc1C |  |  |  |  |  |  |  |  |  |  |  |  |  |  | 1039.23 ± 0.87 | 1033.59 ± 0.87 | 1027.95 ± 0.87 | 1022.32 ± 0.88 | 1016.68 ± 0.88 | 1011.05 ± 0.89 | mass density ([3]; 318.15 K, x1 = 1): 1005.42 ± 0.89 kg/m3; refractive index ([4]; 288.15 K, x1 = 1): 1.4245 ± 0.0006; refractive index ([4]; 293.15 K, x1 = 1): 1.4224 ± 0.0006; refractive index ([4]; 298.15 K, x1 = 1): 1.4203 ± 0.0006; refractive index ([4]; 303.15 K, x1 = 1): 1.4182 ± 0.0006; refractive index ([4]; 308.15 K, x1 = 1): 1.4161 ± 0.0006; refractive index ([4]; 313.15 K, x1 = 1): 1.4139 ± 0.0006; refractive index ([4]; 318.15 K, x1 = 1): 1.4117 ± 0.0006
c1ccccc1 [benzene] | 1.5042 ± 0.0007 | 1.5011 ± 0.0007 | 1.498 ± 0.0007 | 1.4949 ± 0.0007 | 1.4918 ± 0.0007 | 1.4887 ± 0.0007 | 1.4856 ± 0.0007 | 884.3 ± 0.81 | 878.95 ± 0.8 | 873.61 ± 0.8 | 868.26 ± 0.81 | 862.9 ± 0.81 | 857.56 ± 0.82 | 852.23 ± 0.82 |  |  |  |  |  |  | 
c1ccccc1 [benzene] + C1COCCO1 |  |  |  |  |  |  |  |  |  |  |  |  |  |  |  |  |  |  |  |  | mass density ([3]; 288.15 K, x2 = 0): 884.3 ± 0.81 kg/m3; mass density ([3]; 293.15 K, x2 = 0): 878.95 ± 0.8 kg/m3; mass density ([3]; 298.15 K, x2 = 0): 873.61 ± 0.8 kg/m3; mass density ([3]; 303.15 K, x2 = 0): 868.26 ± 0.81 kg/m3; mass density ([3]; 308.15 K, x2 = 0): 862.9 ± 0.81 kg/m3; mass density ([3]; 313.15 K, x2 = 0): 857.56 ± 0.82 kg/m3; mass density ([3]; 318.15 K, x2 = 0): 852.23 ± 0.82 kg/m3; refractive index ([4]; 288.15 K, x2 = 0): 1.5042 ± 0.0007; refractive index ([4]; 293.15 K, x2 = 0): 1.5011 ± 0.0007; refractive index ([4]; 298.15 K, x2 = 0): 1.498 ± 0.0007; refractive index ([4]; 303.15 K, x2 = 0): 1.4949 ± 0.0007; refractive index ([4]; 308.15 K, x2 = 0): 1.4918 ± 0.0007; refractive index ([4]; 313.15 K, x2 = 0): 1.4887 ± 0.0007; refractive index ([4]; 318.15 K, x2 = 0): 1.4856 ± 0.0007
Cc1ccccc1 [toluene] | 1.4998 ± 0.0007 | 1.497 ± 0.0007 | 1.4942 ± 0.0007 | 1.4913 ± 0.0007 | 1.4884 ± 0.0007 | 1.4855 ± 0.0007 | 1.4826 ± 0.0007 | 871.79 ± 0.72 | 867.08 ± 0.71 | 862.36 ± 0.72 | 857.64 ± 0.72 | 852.93 ± 0.73 | 848.21 ± 0.73 | 843.49 ± 0.74 |  |  |  |  |  |  | 
Cc1ccccc1 [toluene] + C1COCCO1 |  |  |  |  |  |  |  |  |  |  |  |  |  |  |  |  |  |  |  |  | mass density ([3]; 288.15 K, x2 = 0): 871.79 ± 0.72 kg/m3; mass density ([3]; 293.15 K, x2 = 0): 867.08 ± 0.71 kg/m3; mass density ([3]; 298.15 K, x2 = 0): 862.36 ± 0.72 kg/m3; mass density ([3]; 303.15 K, x2 = 0): 857.64 ± 0.72 kg/m3; mass density ([3]; 308.15 K, x2 = 0): 852.93 ± 0.73 kg/m3; mass density ([3]; 313.15 K, x2 = 0): 848.21 ± 0.73 kg/m3; mass density ([3]; 318.15 K, x2 = 0): 843.49 ± 0.74 kg/m3; refractive index ([4]; 288.15 K, x2 = 0): 1.4998 ± 0.0007; refractive index ([4]; 293.15 K, x2 = 0): 1.497 ± 0.0007; refractive index ([4]; 298.15 K, x2 = 0): 1.4942 ± 0.0007; refractive index ([4]; 303.15 K, x2 = 0): 1.4913 ± 0.0007; refractive index ([4]; 308.15 K, x2 = 0): 1.4884 ± 0.0007; refractive index ([4]; 313.15 K, x2 = 0): 1.4855 ± 0.0007; refractive index ([4]; 318.15 K, x2 = 0): 1.4826 ± 0.0007
